# From the CheMixHub ionic liquid set
# ± gives the uncertainty stated by the source.
# Assay: xn = mol fraction of the nth substance listed
# Details: 100 kPa; for electrical conductivity: frequency 1 MHz
structure (smiles),measurement,setting,value
O=S(=O)([N-]S(=O)(=O)C(F)(F)F)C(F)(F)F.[Cs+] + O=S(=O)([N-]S(=O)(=O)C(F)(F)F)C(F)(F)F.[Li+],electrical conductivity,"403.1 K, x2 = 0.07",0.673 ± 0.071 S/m
same,viscosity,"403.2 K, x2 = 0.07",97 ± 10 mPa·s
same,electrical conductivity,"413.1 K, x2 = 0.07",0.898 ± 0.093 S/m
same,viscosity,"413.2 K, x2 = 0.07",69.8 ± 7.4 mPa·s
same,electrical conductivity,"423.5 K, x2 = 0.07",1.16 ± 0.12 S/m
same,viscosity,"423.7 K, x2 = 0.07",51.5 ± 5.4 mPa·s
same,electrical conductivity,"432.7 K, x2 = 0.07",1.44 ± 0.15 S/m
same,viscosity,"432.9 K, x2 = 0.07",39.2 ± 4.1 mPa·s
same,electrical conductivity,"442.1 K, x2 = 0.07",1.77 ± 0.18 S/m
same,viscosity,"442.5 K, x2 = 0.07",27.9 ± 2.9 mPa·s
same,electrical conductivity,"452.2 K, x2 = 0.07",2.12 ± 0.22 S/m
same,viscosity,"452.5 K, x2 = 0.07",23 ± 2.4 mPa·s
same,electrical conductivity,"462.6 K, x2 = 0.07",2.52 ± 0.25 S/m
same,viscosity,"463 K, x2 = 0.07",18.9 ± 1.9 mPa·s
same,electrical conductivity,"473.6 K, x2 = 0.07",2.94 ± 0.3 S/m
same,viscosity,"473.9 K, x2 = 0.07",15.8 ± 1.6 mPa·s
same,electrical conductivity,"482.8 K, x2 = 0.07",3.37 ± 0.34 S/m
same,viscosity,"483.1 K, x2 = 0.07",13.1 ± 1.3 mPa·s
same,electrical conductivity,"492 K, x2 = 0.07",3.86 ± 0.39 S/m
same,viscosity,"492.6 K, x2 = 0.07",11.1 ± 1.1 mPa·s
same,electrical conductivity,"502.1 K, x2 = 0.07",4.33 ± 0.44 S/m
same,viscosity,"502.5 K, x2 = 0.07",9.71 ± 0.98 mPa·s
same,electrical conductivity,"512.5 K, x2 = 0.07",4.85 ± 0.49 S/m
same,viscosity,"512.8 K, x2 = 0.07",8.54 ± 0.87 mPa·s
same,electrical conductivity,"523.1 K, x2 = 0.07",5.37 ± 0.54 S/m
same,viscosity,"523.6 K, x2 = 0.07",7.41 ± 0.75 mPa·s
same,electrical conductivity,"531.3 K, x2 = 0.07",5.9 ± 0.59 S/m
same,viscosity,"531.9 K, x2 = 0.07",6.64 ± 0.67 mPa·s
same,electrical conductivity,"542.9 K, x2 = 0.07",6.41 ± 0.64 S/m
same,viscosity,"543.5 K, x2 = 0.07",6.03 ± 0.61 mPa·s
same,electrical conductivity,"551.8 K, x2 = 0.07",7 ± 0.7 S/m
same,viscosity,"552.5 K, x2 = 0.07",5.39 ± 0.55 mPa·s
same,electrical conductivity,"560.9 K, x2 = 0.07",7.52 ± 0.75 S/m
same,viscosity,"561.8 K, x2 = 0.07",5.01 ± 0.51 mPa·s
same,electrical conductivity,"571.1 K, x2 = 0.07",8.14 ± 0.82 S/m
O=S(=O)([N-]S(=O)(=O)C(F)(F)F)C(F)(F)F.[K+] + O=S(=O)([N-]S(=O)(=O)C(F)(F)F)C(F)(F)F.[Li+],electrical conductivity,"442.3 K, x2 = 0.43",0.359 ± 0.038 S/m
same,viscosity,"442.5 K, x2 = 0.43",179 ± 19 mPa·s
same,electrical conductivity,"452.3 K, x2 = 0.43",0.479 ± 0.05 S/m
same,viscosity,"452.5 K, x2 = 0.43",127 ± 14 mPa·s
same,electrical conductivity,"462.7 K, x2 = 0.43",0.624 ± 0.064 S/m
same,viscosity,"463 K, x2 = 0.43",90 ± 9.6 mPa·s
same,electrical conductivity,"473.6 K, x2 = 0.43",0.794 ± 0.081 S/m
same,viscosity,"473.9 K, x2 = 0.43",63.7 ± 6.7 mPa·s
same,electrical conductivity,"483 K, x2 = 0.43",0.99 ± 0.1 S/m
same,viscosity,"483.1 K, x2 = 0.43",50.6 ± 5.2 mPa·s
same,electrical conductivity,"492.3 K, x2 = 0.43",1.19 ± 0.12 S/m
same,viscosity,"492.6 K, x2 = 0.43",39.1 ± 4 mPa·s
same,electrical conductivity,"502.3 K, x2 = 0.43",1.42 ± 0.14 S/m
same,viscosity,"502.5 K, x2 = 0.43",31.6 ± 3.2 mPa·s
same,electrical conductivity,"512.6 K, x2 = 0.43",1.66 ± 0.17 S/m
same,viscosity,"512.8 K, x2 = 0.43",26.4 ± 2.7 mPa·s
same,electrical conductivity,"523.4 K, x2 = 0.43",1.93 ± 0.2 S/m
same,viscosity,"523.6 K, x2 = 0.43",21.8 ± 2.2 mPa·s
same,electrical conductivity,"531.6 K, x2 = 0.43",2.25 ± 0.23 S/m
same,viscosity,"531.9 K, x2 = 0.43",18.4 ± 1.9 mPa·s
same,electrical conductivity,"543 K, x2 = 0.43",2.48 ± 0.25 S/m
same,viscosity,"543.5 K, x2 = 0.43",14.6 ± 1.5 mPa·s
same,electrical conductivity,"552.2 K, x2 = 0.43",2.77 ± 0.28 S/m
same,viscosity,"552.5 K, x2 = 0.43",13.6 ± 1.4 mPa·s
same,electrical conductivity,"561.6 K, x2 = 0.43",3.1 ± 0.31 S/m
same,viscosity,"561.8 K, x2 = 0.43",12.5 ± 1.3 mPa·s
same,electrical conductivity,"571.3 K, x2 = 0.43",3.53 ± 0.36 S/m
